Consider ten molecules from patent publication US11667643B2, “RIP1K inhibitors” (priority 2020, dated 2023).

One assay concerns L929 cells. The experiment in a line: L929 cell necroptosis assay (TNFa + zVAD, CellTiter-Glo recovery), functional murine RIP1 assay. It is filed as cell-based. The conditions noted are these: Mus musculus, L929, 18 h, read-out: L929-CTG-recovery, L929, TNFa + zVAD (IC50), L929 cells, zVAD-fmk, TNFa 2 ng/mL, 18 hours, CellTiter-Glo. In short, it runs like this:
(§1)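 Human U937 cells (50K/well, 60 uM zVAD-fmk in plating medium) and murine L929 cells (10K/well, medium replaced with 40 uM zVAD-fmk) were pre-incubated with compound 1 h at 37 °C. TNFa was then added at a final 2 ng/mL. Viability by CellTiter-Glo luminescence after 18 h.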
(Cellular ATP, detected with luciferase, serves as a proxy for viable cell number.)

In the next assay the target is RIPK1 (Homo sapiens (Human), UniProt Q13546). The experiment in a line: biochemical. It is filed as biochemical. An outline of the steps:
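ADP-Glo luminescent assay of RIPK1 at 31 ng/well in Tris-HCl pH 7.4 buffer with MgCl2, BSA, 100 μM DTT and 4 mM MnCl2; compounds run in duplicate. Kinase reaction 30 min at 30 °C, then ADP-Glo 40 min and detection reagent 30 min at room temperature; ADP formation read as luminescence.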

The subject of another assay is U937 cells. The experiment in a line: U937 cell necroptosis assay (TNFa + zVAD, CellTiter-Glo recovery), functional human RIP1 assay. The conditions noted are these: Homo sapiens, U-937, 18 h, read-out: U937 Zvad TNF CTG Recovery, U937, TNFa + zVAD (IC50), U937 cells, zVAD-fmk, TNFa 2 ng/mL, 18 hours, CellTiter-Glo. Format: cell-based. In short, it runs like this: as §1

Setting [1] is: RIPK1 enzyme 31 ng/well, 30° C. for 30 minutes, luminescence, read-out: RIPK1 ADP-Glo Kinase (IC50).

Where two headings read alike, the source gives them in different places.

RIPK1, sequence (Q13546 whole entry, species assumed): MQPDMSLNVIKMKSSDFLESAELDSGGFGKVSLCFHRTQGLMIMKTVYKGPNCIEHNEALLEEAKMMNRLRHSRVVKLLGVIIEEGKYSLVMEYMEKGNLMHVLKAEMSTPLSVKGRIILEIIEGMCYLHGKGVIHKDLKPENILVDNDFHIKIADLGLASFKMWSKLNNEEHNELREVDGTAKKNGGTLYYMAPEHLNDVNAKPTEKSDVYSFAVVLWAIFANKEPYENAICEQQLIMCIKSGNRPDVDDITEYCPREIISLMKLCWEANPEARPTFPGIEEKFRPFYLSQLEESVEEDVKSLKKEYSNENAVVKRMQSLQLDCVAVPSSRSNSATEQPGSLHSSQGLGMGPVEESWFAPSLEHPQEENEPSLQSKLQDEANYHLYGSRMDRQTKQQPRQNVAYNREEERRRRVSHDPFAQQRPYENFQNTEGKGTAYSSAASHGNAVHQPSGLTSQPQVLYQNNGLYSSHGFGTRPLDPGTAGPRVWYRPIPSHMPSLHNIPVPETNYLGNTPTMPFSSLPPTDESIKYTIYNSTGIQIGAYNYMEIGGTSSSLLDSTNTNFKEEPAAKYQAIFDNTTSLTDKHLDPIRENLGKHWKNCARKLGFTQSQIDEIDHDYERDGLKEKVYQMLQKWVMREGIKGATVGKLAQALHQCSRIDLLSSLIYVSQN

For the molecule `O=C(N[C@H]1COc2ccccc2-n2c1noc2=O)c1n[nH]c(Cc2ccc(F)cc2)n1` [Compound I-50, 5-(4-Fluorobenzyl)-N-((4R)-1-oxo-4,5-dihydro-1H-benzo[6][1,2,4]oxadiazolo[4,3-d][1,4]oxazepin-4-yl)-1H-1,2,4-triazole-3-carboxamide], the IC50 in the assay on L929 cells turned out to be 10000 µM; at RIPK1 (setting [1]), 0.109 µM; in the assay on U937 cells it was 0.246 µM.

As for `O=C(N[C@H]1COc2ccccc2-n2c1noc2=O)c1cc(Oc2ccccc2)ccn1` [Compound I-53, N-((4R)-1-Oxo-4,5-dihydro-1H-benzo[6][1,2,4]oxadiazolo[4,3-d][1,4]oxazepin-4-yl)-4-phenoxypicolinamide], the IC50 was 30.7 µM in the assay on L929 cells, 0.0204 µM at RIPK1 (setting [1]) and 0.0462 µM with U937 cells.

As for `CC(C)(O)C#Cc1ccc2c(c1)-n1nnnc1[C@@H](NC(=O)c1n[nH]c(Cc3ccccc3)n1)CO2` [Compound I-69, (R)-5-Benzyl-N-(9-(3-hydroxy-3-methylbut-1-yn-1-yl)-4,5-dihydrobenzo[b]tetrazolo[1,5-d][1,4]oxazepin-4-yl)-1H-1,2,4-triazole-3-carboxamide], the results for the IC50 with L929 cells, at RIPK1 (setting [1]) and in the assay with U937 cells were 10000 µM, 0.0601 µM and 0.787 µM, respectively.

Consider `O=C(N[C@H]1COc2ccccc2-n2c1noc2=O)c1cc(O)n(Cc2ccccc2)n1` [Compound I-75, 1-Benzyl-5-hydroxy-N-((4R)-1-oxo-4,5-dihydro-1H-benzo[b][1,2,4]oxadiazolo[4,3-d][1,4]oxazepin-4-yl)-1H-pyrazole-3-carboxamide], for which the IC50 in the assay with L929 cells came to 10000 µM; on RIPK1 (setting [1]) it was 10.6 µM; with U937 cells, 10000 µM.

Regarding `O=C1c2nn(Cc3ccccc3)c(Cl)c2CN1[C@H]1COc2ccccc2-n2nnnc21` [Compound I-79], the IC50 with L929 cells was determined as 10000 µM; at RIPK1 (setting [1]) it was 0.652 µM; in the assay with U937 cells, 16.1 µM.

For `O=C(N[C@H]1CCc2ccc(N3CCC4(CCOCC4)CC3)cc2-n2ccnc21)c1n[nH]c(Cc2ccccc2)n1` [Compound I-83, (S)—N-(9-(3-Oxa-9-azaspiro[5.5]undecan-9-yl)-5,6-dihydro-4H-benzo[f]imidazo[1,2-a]azepin-4-yl)-5-benzyl-1H-1,2,4-triazole-3-carboxamide], the figures for the IC50 with L929 cells, on RIPK1 (setting [1]) and with U937 cells were 2.12 µM, 0.0435 µM and 0.0043 µM, respectively.

In the case of `O=C(N[C@H]1CCc2ccc(N3CC4(CCOCC4)C3)cc2-n2ccnc21)c1n[nH]c(Cc2ccccc2)n1` [Compound I-86, (S)—N-(9-(7-Oxa-2-azaspiro[3.5]nonan-2-yl)-5,6-dihydro-4H-benzo[f]imidazo[1,2-a]azepin-4-yl)-5-benzyl-1H-1,2,4-triazole-3-carboxamide], the values for the IC50 in the assay on L929 cells, on RIPK1 (setting [1]) and in the assay with U937 cells were 3.45 µM, 0.067 µM and 0.0119 µM, respectively.

For `O=C(N[C@H]1COc2ccc(N3CC4(CCOCC4)C3)cc2-n2ccnc21)c1n[nH]c(Cc2ccccc2)n1` [Compound I-87, (R)—N-(9-(7-Oxa-2-azaspiro[3.5]nonan-2-yl)-4,5-dihydrobenzo[b]imidazo[1,2-d][1,4]oxazepin-4-yl)-5-benzyl-1H-1,2,4-triazole-3-carboxamide], the values for the IC50 in the assay with L929 cells, against RIPK1 and with U937 cells were 10000 µM, 0.0682 µM and 0.0156 µM, respectively.

With `O=C(N[C@H]1COc2ccc(N3CC4(CCOCC4)C3)cc2-n2ccnc21)c1cc(Oc2ccccc2)ccn1` [Compound I-88, (R)—N-(9-(7-Oxa-2-azaspiro[3.5]nonan-2-yl)-4,5-dihydrobenzo[b]imidazo[1,2-d][1,4]oxazepin-4-yl)-4-phenoxypicolinamide], the IC50 with L929 cells is 10000 µM; on RIPK1 (setting [1]), 0.112 µM; with U937 cells, 0.163 µM.

Regarding `O=C(N[C@H]1COc2ccc(C#Cc3ccccn3)cc2-n2ccnc21)c1n[nH]c(Cc2ccccc2)n1` [Compound I-89, (R)-5-Benzyl-N-(9-(pyridin-2-ylethynyl)-4,5-dihydrobenzo[b]imidazo[1,2-d][1,4]oxazepin-4-yl)-1H-1,2,4-triazole-3-carboxamide], the figures for the IC50 in the assay on L929 cells, on RIPK1 (setting [1]) and in the assay with U937 cells were 7.93 µM, 0.108 µM and 0.0352 µM, respectively.
